According to US8802597B2, “Herbicidal pyrimidines” (E I du Pont de Nemours and Company, priority 2003, dated 2014):

How the values were obtained:
Assay in all cases: Test C pre/postemergence
Assay type in all cases: in vivo
[1] = system: woolly cupgrass (Eriochloa villosa); conditions: for Cupgrass, Woolly plant response rating: scale 0 to 100 (0 no effect, 100 complete control)
Outline: (§1)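 Rating scale 0–100: 0 means no effect, 100 complete control; taken visually 12 to 14 days post-treatment versus controls. Pre- and postemergence greenhouse applications, postemergence at 1- to 4-leaf stage, non-phytotoxic solvent with surfactant as carrier.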

[2] = system: johnsongrass (Sorghum halepense); conditions: for Johnsongrass plant response rating: scale 0 to 100 (0 no effect, 100 complete control)
Outline: as §1

[3] = system: bermudagrass (Cynodon dactylon); conditions: for Bermudagrass plant response rating: scale 0 to 100 (0 no effect, 100 complete control)
Outline: as §1

[4] = system: goosegrass (Eleusine indica); conditions: for Goosegrass plant response rating: scale 0 to 100 (0 no effect, 100 complete control)
Outline: as §1

[5] = system: crabgrass (Digitaria sanguinalis); conditions: for Crabgrass plant response rating: scale 0 to 100 (0 no effect, 100 complete control)
Outline: as §1

[6] = system: morningglory (Ipomoea coccinea); conditions: for Morningglory plant response rating: scale 0 to 100 (0 no effect, 100 complete control)
Outline: as §1

kochia (Kochia scoparia) = conditions: for Kochia plant response rating: scale 0 to 100 (0 no effect, 100 complete control)
Outline: as §1

[7] = system: Surinam grass (Brachiaria decumbens); conditions: for Surinam Grass plant response rating: scale 0 to 100 (0 no effect, 100 complete control)
Outline: as §1

[8] = system: pigweed (Amaranthus retroflexus); conditions: for Pigweed plant response rating: scale 0 to 100 (0 no effect, 100 complete control)
Outline: as §1

[9] = system: giant foxtail (Setaria faberii); conditions: for Foxtail, Giant plant response rating: scale 0 to 100 (0 no effect, 100 complete control)
Outline: as §1

[10] = system: common (oilseed) sunflower (Helianthus annuus); conditions: Preemergence
Outline: as §1

soybean (Glycine max) = conditions: for Soybean plant response rating: scale 0 to 100 (0 no effect, 100 complete control)
Outline: as §1

[11] = Postemergence, 250 g ai/ha, scale 0 to 100
[12] = Postemergence, 500 g ai/ha, scale 0 to 100
[13] = Preemergence, 62 g ai/ha, scale 0 to 100, 0 no effect, 100 complete control
[14] = Preemergence, 125 g ai/ha, scale 0 to 100
[15] = Preemergence, 250 g ai/ha, scale 0 to 100
[16] = Preemergence, 500 g ai/ha, scale 0 to 100

Nc1nc(C2CC2)nc(C=NO)c1Br [Compound 27]
95: Plant response rating, Morningglory [6, 15] | Plant response rating, Sunflower ([10]; 500 g ai/ha, scale 0 to 100) | Plant response rating, Soybean (soybean (Glycine max); [12])
60: Plant response rating, Kochia (kochia (Kochia scoparia); [12])
90: Plant response rating, Pigweed [8, 15] | Plant response rating, Sunflower ([10]; 250 g ai/ha, scale 0 to 100)
45: Plant response rating, Johnsongrass [2, 15] | Plant response rating, Kochia (kochia (Kochia scoparia); [16]) | Soybean plant response rating (soybean (Glycine max); Postemergence, 125 g ai/ha)
0: Cupgrass, Woolly plant response rating ([1]; Postemergence, 62 g ai/ha) | Cupgrass, Woolly plant response rating ([1]; Postemergence, 125 g ai/ha) | Plant response rating, Cupgrass, Woolly [1, 11] | Plant response rating, Cupgrass, Woolly [1, 12] | Plant response rating, Cupgrass, Woolly [1, 13] | Plant response rating, Cupgrass, Woolly [1, 14] | Johnsongrass plant response rating ([2]; Postemergence, 62 g ai/ha) | Johnsongrass plant response rating ([2]; Postemergence, 125 g ai/ha) | Plant response rating, Johnsongrass [2, 11] | Plant response rating, Johnsongrass [2, 12] | Plant response rating, Johnsongrass [2, 13] | Bermudagrass plant response rating ([3]; Postemergence, 62 g ai/ha) | Bermudagrass plant response rating ([3]; Postemergence, 125 g ai/ha) | Plant response rating, Bermudagrass [3, 11] | Plant response rating, Bermudagrass [3, 13] | Plant response rating, Bermudagrass [3, 14] | Plant response rating, Bermudagrass [3, 15] | Plant response rating, Bermudagrass [3, 16] | Goosegrass plant response rating ([4]; Postemergence, 62 g ai/ha) | Goosegrass plant response rating ([4]; Postemergence, 125 g ai/ha) | Plant response rating, Goosegrass [4, 11] | Plant response rating, Goosegrass [4, 12] | Plant response rating, Goosegrass [4, 13] | Plant response rating, Goosegrass [4, 14] | Plant response rating, Goosegrass [4, 15] | Crabgrass plant response rating ([5]; Postemergence, 62 g ai/ha) | Crabgrass plant response rating ([5]; Postemergence, 125 g ai/ha) | Plant response rating, Crabgrass [5, 13] | Plant response rating, Crabgrass [5, 14] | Plant response rating, Crabgrass [5, 15] | Plant response rating, Morningglory [6, 13] | Kochia plant response rating (kochia (Kochia scoparia); Postemergence, 62 g ai/ha) | Plant response rating, Kochia (kochia (Kochia scoparia); [13]) | Plant response rating, Kochia (kochia (Kochia scoparia); [14]) | Surinam Grass plant response rating ([7]; Postemergence, 62 g ai/ha) | Surinam Grass plant response rating ([7]; Postemergence, 125 g ai/ha) | Plant response rating, Surinam Grass [7, 11] | Plant response rating, Surinam Grass [7, 12] | Plant response rating, Surinam Grass [7, 13] | Plant response rating, Surinam Grass [7, 14] | Foxtail, Giant plant response rating ([9]; Postemergence, 62 g ai/ha) | Foxtail, Giant plant response rating ([9]; Postemergence, 125 g ai/ha) | Plant response rating, Foxtail, Giant [9, 11] | Plant response rating, Foxtail, Giant [9, 12] | Plant response rating, Foxtail, Giant [9, 13] | Plant response rating, Foxtail, Giant [9, 14] | Plant response rating, Foxtail, Giant [9, 15] | Plant response rating, Sunflower ([10]; 62 g ai/ha, scale 0 to 100, 0 no effect, 100 complete control) | Plant response rating, Soybean (soybean (Glycine max); [13]) | Plant response rating, Soybean (soybean (Glycine max); [14])
65: Plant response rating, Johnsongrass [2, 16]
20: Plant response rating, Johnsongrass [2, 14] | Plant response rating, Goosegrass [4, 16] | Morningglory plant response rating ([6]; Postemergence, 62 g ai/ha) | Kochia plant response rating (kochia (Kochia scoparia); Postemergence, 125 g ai/ha) | Plant response rating, Surinam Grass [7, 15] | Pigweed plant response rating ([8]; Postemergence, 125 g ai/ha) | Plant response rating, Pigweed [8, 13] | Plant response rating, Foxtail, Giant [9, 16] | Plant response rating, Sunflower ([10]; 125 g ai/ha, scale 0 to 100) | Plant response rating, Soybean (soybean (Glycine max); [15])
70: Plant response rating, Morningglory [6, 14]
30: Plant response rating, Bermudagrass [3, 12] | Plant response rating, Crabgrass [5, 12] | Plant response rating, Kochia (kochia (Kochia scoparia); [15]) | Plant response rating, Surinam Grass [7, 16] | Plant response rating, Pigweed [8, 11] | Soybean plant response rating (soybean (Glycine max); Postemergence, 62 g ai/ha)
75: Plant response rating, Soybean (soybean (Glycine max); [16])
5: Plant response rating, Crabgrass [5, 11] | Pigweed plant response rating ([8]; Postemergence, 62 g ai/ha)
80: Plant response rating, Pigweed [8, 12] | Plant response rating, Pigweed [8, 14]
50: Plant response rating, Kochia (kochia (Kochia scoparia); [11])
10: Plant response rating, Cupgrass, Woolly [1, 15]
100: Plant response rating, Morningglory [6, 16] | Plant response rating, Pigweed [8, 16]
15: Plant response rating, Cupgrass, Woolly [1, 16]
85: Plant response rating, Crabgrass [5, 16] | Morningglory plant response rating ([6]; Postemergence, 125 g ai/ha) | Plant response rating, Morningglory [6, 11] | Plant response rating, Morningglory [6, 12] | Plant response rating, Soybean (soybean (Glycine max); [11])
